Test results reported in PubChem BioAssay AID330 (DTP/NCI, 2004).
Several values for one entry are separate records, joined by “and”; a condition that tells them apart may be missing. Equal entries are not always repeated. Inconclusive results and toxic doses are left out.

Test system: P388 leukemia ip, CD2F1 mice, survival T/C
Experiment: NCI In Vivo Anticancer Drug Screen. Data for tumor model P388 Leukemia (intraperitoneal) in CD2F1 (CDF1) mice
Conditions: endpoint: median survival time, higher = longer survival
Outline: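 Mice carrying the transplanted tumor received test compound or vehicle. Survival was recorded in each group, and the value is the treated-group measurement divided by that of the vehicle-treated control group.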

[1] = dose: 60.0 mg/kg/injection, schedule: Q01DX005 (ip), vehicle: saline with Tween-80
[2] = dose: 120.0 mg/kg/injection, schedule: Q01DX005 (ip), vehicle: saline with Tween-80
[3] = dose: 240.0 mg/kg/injection, schedule: Q01DX005 (ip), vehicle: saline with Tween-80
[4] = dose: 50.0 mg/kg/injection, schedule: Q01DX009 (ip), vehicle: saline
[5] = dose: 100.0 mg/kg/injection, schedule: Q01DX009 (ip), vehicle: saline
[6] = dose: 200.0 mg/kg/injection, schedule: Q01DX009 (ip), vehicle: saline
[7] = dose: 100.0 mg/kg/injection, schedule: Q04DX003 (ip), vehicle: saline with Tween-80

COC(=O)C(C)NC(=O)C(C)NC(=O)c1cnc2ccccc2n1 (configuration not stated)
T/C [1]: 97 % of control | T/C [2]: 99 % of control | T/C [3]: 111 % of control

COc1cccc2c1C(=O)c1c(O)c3c(c(O)c1C2=O)[C@@H](OC)[C@@](O)(C(C)=O)C[C@@H]3OC1CC(N)C(O)C(C)O1 (some centres not stated)
T/C (dose: 3.13 mg/kg/injection, schedule: Q04DX003 (ip), vehicle: saline): 110 % of control | T/C (dose: 6.25 mg/kg/injection, schedule: Q04DX003 (ip), vehicle: saline): 115 % of control

COC(C(=O)N/C(N)=N/O)c1c(Cl)cccc1Cl (configuration not stated)
T/C (dose: 50.0 mg/kg/injection, schedule: Q01DX005 (ip), vehicle: Klucel (hydroxypropylcellulose) (HPC)): 98 % of control | T/C (dose: 100.0 mg/kg/injection, schedule: Q01DX005 (ip), vehicle: Klucel (hydroxypropylcellulose) (HPC)): 109 % of control

CCCC(=O)Oc1c(OC(=O)CCC)c(OC(=O)CCC)c(OC(=O)CCC)c(OC(=O)CCC)c1OC(=O)CCC
T/C (dose: 100.0 mg/kg/injection, schedule: Q04DX002 (ip), vehicle: saline with Tween-80): 95 % of control | T/C (dose: 200.0 mg/kg/injection, schedule: Q04DX002 (ip), vehicle: saline with Tween-80): 99 % of control | T/C (dose: 400.0 mg/kg/injection, schedule: Q04DX002 (ip), vehicle: saline with Tween-80): 90 % of control

CSc1ncc(Br)c(Sc2nccn2C)n1
T/C [1]: 112 % of control | T/C [2]: 117 % of control | T/C [3]: 114 % of control

CC(=O)OC1C(=C(Br)Br)C(COC(=O)c2ccccc2)OC1n1cnc2c(NC(=O)c3ccccc3)ncnc21 (configuration not stated)
T/C (dose: 100.0 mg/kg/injection, schedule: Q01DX001 (ip), vehicle: saline with Tween-80): 98 % of control | T/C (dose: 200.0 mg/kg/injection, schedule: Q01DX001 (ip), vehicle: saline with Tween-80): 90 % of control | T/C (dose: 400.0 mg/kg/injection, schedule: Q01DX001 (ip), vehicle: saline with Tween-80): 92 % of control

CC/C(=N/NS(=O)(=O)c1ccc(C)cc1)c1ccc(C(C)(C)C)cc1
T/C [4]: 99 % of control and 96 % of control | T/C [5]: 102 % of control | T/C [6]: 102 % of control and 87 % of control

N#C/C(=C\c1ccc(Cl)cc1)C(=O)N/N=C/c1ccc(Cl)cc1
T/C [4]: 97 % of control | T/C [5]: 97 % of control | T/C [6]: 101 % of control

CCOC(=O)c1cc2c(ccn2OC)[nH]1
T/C [7]: 102 % of control

O=c1[nH]c(=O)n(C2CC(O)C(CO)O2)cc1O (configuration not stated)
T/C (dose: 50.0 mg/kg/injection, schedule: Q04DX003 (ip), vehicle: saline with Tween-80): 100 % of control | T/C [7]: 101 % of control | T/C (dose: 200.0 mg/kg/injection, schedule: Q04DX003 (ip), vehicle: saline with Tween-80): 99 % of control | T/C (dose: 400.0 mg/kg/injection, schedule: Q04DX003 (ip), vehicle: saline with Tween-80): 101 % of control
